In PubChem BioAssay AID330 (DTP/NCI, 2004):
Several values for one entry are separate records, joined by “and”; a condition that tells them apart may be missing. Equal values may be shown once. Toxic doses and inconclusive results are not listed.

System: P388 leukemia ip, CD2F1 mice, survival T/C
Experiment: NCI In Vivo Anticancer Drug Screen. Data for tumor model P388 Leukemia (intraperitoneal) in CD2F1 (CDF1) mice
Details: endpoint: median survival time, higher = longer survival
In short: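 Mice carrying the transplanted tumor received test compound or vehicle. Survival was recorded in each group, and the value is the treated-group measurement divided by that of the vehicle-treated control group.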

[1] = dose: 50.0 mg/kg/injection, schedule: Q01DX005 (ip), vehicle: saline with Tween-80
[2] = dose: 100.0 mg/kg/injection, schedule: Q01DX005 (ip), vehicle: saline with Tween-80
[3] = dose: 200.0 mg/kg/injection, schedule: Q01DX005 (ip), vehicle: saline with Tween-80
[4] = dose: 50.0 mg/kg/injection, schedule: Q01DX009 (ip), vehicle: Klucel (hydroxypropylcellulose) (HPC)
[5] = dose: 100.0 mg/kg/injection, schedule: Q01DX009 (ip), vehicle: Klucel (hydroxypropylcellulose) (HPC)
[6] = dose: 50.0 mg/kg/injection, schedule: Q01DX009 (ip), vehicle: saline with Tween-80
[7] = dose: 100.0 mg/kg/injection, schedule: Q01DX009 (ip), vehicle: saline with Tween-80
[8] = dose: 3.13 mg/kg/injection, schedule: Q04DX003 (ip), vehicle: other
[9] = dose: 100.0 mg/kg/injection, schedule: Q01DX001 (ip), vehicle: saline with Tween-80
[10] = dose: 200.0 mg/kg/injection, schedule: Q01DX001 (ip), vehicle: saline with Tween-80
[11] = dose: 400.0 mg/kg/injection, schedule: Q01DX001 (ip), vehicle: saline with Tween-80
[12] = dose: 60.0 mg/kg/injection, schedule: Q01DX005 (ip), vehicle: Klucel (hydroxypropylcellulose) (HPC)
[13] = dose: 120.0 mg/kg/injection, schedule: Q01DX005 (ip), vehicle: Klucel (hydroxypropylcellulose) (HPC)
[14] = dose: 240.0 mg/kg/injection, schedule: Q01DX005 (ip), vehicle: Klucel (hydroxypropylcellulose) (HPC)
[15] = dose: 60.0 mg/kg/injection, schedule: Q01DX005 (ip), vehicle: saline with Tween-80
[16] = dose: 120.0 mg/kg/injection, schedule: Q01DX005 (ip), vehicle: saline with Tween-80
[17] = dose: 240.0 mg/kg/injection, schedule: Q01DX005 (ip), vehicle: saline with Tween-80
[18] = dose: 200.0 mg/kg/injection, schedule: Q01DX009 (ip), vehicle: saline with Tween-80

## COc1ccc(-c2coc3c4c(ccc3c2=O)OC(C)(C)C=C4)cc1
[1]
  T/C: 101 % of control
[2]
  T/C: 99 % of control
[3]
  T/C: 100 % of control

## Cc1cc(C(C)(C)C)ccc1SP(Sc1ccc(C(C)(C)C)cc1C)Sc1ccc(C(C)(C)C)cc1C
[4]
  T/C: 100 % of control
[5]
  T/C: 92 % of control
dose: 200.0 mg/kg/injection, schedule: Q01DX009 (ip), vehicle: Klucel (hydroxypropylcellulose) (HPC)
  T/C: 92 % of control

## Cc1cc2nc3c(=O)[nH]c(=O)nc-3n(CC(O)C(O)C(O)CO)c2cc1C (stereo unspecified)
[6]
  T/C: 99 % of control and 104 % of control
[7]
  T/C: 96 % of control and 98 % of control

## Nc1cc2c(c[n+](CCCCCCC[n+]3cc4c5ccccc5c(N)cc4c4ccccc43)c3ccccc23)c2ccccc12
dose: 1.56 mg/kg/injection, schedule: Q04DX003 (ip), vehicle: other
  T/C: 150 % of control and 153 % of control
[8]
  T/C: 155 % of control
dose: 6.25 mg/kg/injection, schedule: Q04DX003 (ip), vehicle: other
  T/C: 150 % of control and 173 % of control
dose: 12.5 mg/kg/injection, schedule: Q04DX003 (ip), vehicle: other
  T/C: 166 % of control and 180 % of control

## Cc1ccccc1N=Nc1c(O)n(-c2ccc(Br)cc2)c(=S)n(-c2ccccc2)c1=O
[9]
  T/C: 98 % of control
[10]
  T/C: 98 % of control
[11]
  T/C: 89 % of control

## COc1ccc(Cc2nnc(C)c3c(C)[nH]nc23)cc1OC
[4]
  T/C: 92 % of control
[5]
  T/C: 92 % of control

## O=NNc1nc2ccc([N+](=O)[O-])cc2s1
dose: 3.12 mg/kg/injection, schedule: Q01DX009 (ip), vehicle: water
  T/C: 95 % of control
dose: 6.25 mg/kg/injection, schedule: Q01DX009 (ip), vehicle: water
  T/C: 95 % of control
dose: 12.5 mg/kg/injection, schedule: Q01DX009 (ip), vehicle: water
  T/C: 103 % of control and 97 % of control
dose: 25.0 mg/kg/injection, schedule: Q01DX009 (ip), vehicle: water
  T/C: 106 % of control and 109 % of control and 112 % of control
dose: 50.0 mg/kg/injection, schedule: Q01DX009 (ip), vehicle: water
  T/C: 112 % of control and 118 % of control

## C[OH2+].[Cl][Cu+].[Cl][Cu+].[NH-]CCC([OH2+])CC[NH-]
dose: 1.56 mg/kg/injection, schedule: Q01DX005 (ip), vehicle: Klucel (hydroxypropylcellulose) (HPC)
  T/C: 96 % of control
dose: 3.12 mg/kg/injection, schedule: Q01DX005 (ip), vehicle: Klucel (hydroxypropylcellulose) (HPC)
  T/C: 103 % of control
dose: 6.25 mg/kg/injection, schedule: Q01DX005 (ip), vehicle: Klucel (hydroxypropylcellulose) (HPC)
  T/C: 106 % of control and 91 % of control

## CC12CCCC([N+](=O)[O-])(C1)NC(=O)C2C#N (stereo unspecified)
[12]
  T/C: 108 % of control
[13]
  T/C: 95 % of control
[14]
  T/C: 100 % of control

## CCO/C=C(\C#N)S(=O)(=O)/C(C#N)=C/OCC
dose: 100.0 mg/kg/injection, schedule: Q04DX002 (ip), vehicle: saline
  T/C: 108 % of control
dose: 200.0 mg/kg/injection, schedule: Q04DX002 (ip), vehicle: saline
  T/C: 101 % of control

## CC1(C)CN(C(=S)N2CC(C)(C)SC2=O)C(=O)S1
[15]
  T/C: 108 % of control
[16]
  T/C: 98 % of control
[17]
  T/C: 104 % of control

## CC[C@@]1(O)C(=O)OCc2c1cc1n(c2=O)Cc2cc3ccccc3nc2-1
dose: 0.25 mg/kg/injection, schedule: Q04DX003 (ip), vehicle: other
  T/C: 109 % of control
dose: 0.5 mg/kg/injection, schedule: Q04DX003 (ip), vehicle: other
  T/C: 119 % of control and 122 % of control
dose: 0.79 mg/kg/injection, schedule: Q04DX003 (ip), vehicle: other
  T/C: 151 % of control
dose: 1.0 mg/kg/injection, schedule: Q04DX003 (ip), vehicle: other
  T/C: 163 % of control
dose: 1.5 mg/kg/injection, schedule: Q01DX005 (ip), vehicle: saline with Tween-80
  T/C: 153 % of control and 161 % of control (2×)
dose: 1.57 mg/kg/injection, schedule: Q04DX003 (ip), vehicle: other
  T/C: 161 % of control
dose: 1.6 mg/kg/injection, schedule: Q04DX003 (ip), vehicle: saline with Tween-80
  T/C: 150 % of control
dose: 2.0 mg/kg/injection, schedule: Q04DX003 (ip), vehicle: other
  T/C: 157 % of control and 158 % of control
dose: 2.1 mg/kg/injection, schedule: Q01DX005 (ip), vehicle: saline with Tween-80
  T/C: 187 % of control
dose: 2.5 mg/kg/injection, schedule: Q04DX003 (ip), vehicle: saline with Tween-80
  T/C: 181 % of control
dose: 3.0 mg/kg/injection, schedule: Q01DX005 (ip), vehicle: saline with Tween-80
  T/C: 192 % of control and 194 % of control and 196 % of control
[8]
  T/C: 278 % of control
dose: 3.6 mg/kg/injection, schedule: Q01DX005 (ip), vehicle: saline with Tween-80
  T/C: 277 % of control
dose: 4.0 mg/kg/injection, schedule: Q04DX003 (ip), vehicle: other
  T/C: 155 % of control and 197 % of control and 245 % of control
dose: 5.0 mg/kg/injection, schedule: Q04DX002 (ip), vehicle: saline with Tween-80
  T/C: 175 % of control
dose: 8.0 mg/kg/injection, schedule: Q04DX003 (ip), vehicle: other
  T/C: 92 % of control
dose: 12.0 mg/kg/injection, schedule: Q01DX005 (ip), vehicle: saline with Tween-80
  T/C: 87 % of control

## CC(C)(Br)C(=O)N1CCN(C(c2ccccc2)c2ccccc2)CC1
[15]
  T/C: 92 % of control
[16]
  T/C: 91 % of control
[17]
  T/C: 89 % of control

## C=CCSc1nc(N)nc(Nc2ccccc2)n1
[9]
  T/C: 98 % of control
[10]
  T/C: 92 % of control
[11]
  T/C: 87 % of control

## CCCCOc1ccc(OCc2ccc(C)cc2)cc1
[6]
  T/C: 114 % of control
[7]
  T/C: 114 % of control
[18]
  T/C: 91 % of control

## [Cl][Pt+2][Cl].[NH-]CCC[NH-]
dose: 6.25 mg/kg/injection, schedule: Q04DX002 (ip), vehicle: saline
  T/C: 178 % of control
dose: 12.5 mg/kg/injection, schedule: Q04DX002 (ip), vehicle: saline
  T/C: 183 % of control

## CC(N)(CO)C(=O)O (stereo unspecified)
dose: 100.0 mg/kg/injection, schedule: Q04DX003 (ip), vehicle: saline
  T/C: 104 % of control
dose: 200.0 mg/kg/injection, schedule: Q04DX003 (ip), vehicle: saline
  T/C: 90 % of control
dose: 400.0 mg/kg/injection, schedule: Q04DX003 (ip), vehicle: saline
  T/C: 100 % of control

## CNC(=O)c1ccccc1CC1(O)CCCc2ccccc21 (stereo unspecified)
[6]
  T/C: 101 % of control
[7]
  T/C: 96 % of control
[18]
  T/C: 96 % of control

## COc1ccc(Cc2cc3c(cc2OCC(=O)Nc2ccccn2)OCO3)cc1
dose: 6.25 mg/kg/injection, schedule: Q01DX005 (ip), vehicle: saline with Tween-80
  T/C: 92 % of control
dose: 12.5 mg/kg/injection, schedule: Q01DX005 (ip), vehicle: saline with Tween-80
  T/C: 90 % of control
dose: 25.0 mg/kg/injection, schedule: Q01DX005 (ip), vehicle: saline with Tween-80
  T/C: 86 % of control
[2]
  T/C: 90 % of control
[3]
  T/C: 90 % of control

## COC(=O)n1oc2ccccc2c1=O
dose: 100.0 mg/kg/injection, schedule: Q04DX002 (ip), vehicle: Klucel (hydroxypropylcellulose) (HPC)
  T/C: 99 % of control
dose: 200.0 mg/kg/injection, schedule: Q04DX002 (ip), vehicle: Klucel (hydroxypropylcellulose) (HPC)
  T/C: 101 % of control
dose: 400.0 mg/kg/injection, schedule: Q04DX002 (ip), vehicle: Klucel (hydroxypropylcellulose) (HPC)
  T/C: 101 % of control

## CN(C)N1C(=O)SCC(c2ccccc2)(c2ccccc2)C1=O
[12]
  T/C: 97 % of control
[13]
  T/C: 96 % of control
[14]
  T/C: 86 % of control

## OC1c2ccccc2-c2ccc(N(Cc3ccc(Br)cc3)Cc3ccc(Br)cc3)cc21 (stereo unspecified)
[1]
  T/C: 100 % of control
[2]
  T/C: 91 % of control
[3]
  T/C: 92 % of control

## CCC1=CC2CN(CCc3c([nH]c4ccccc34)C(C(=O)OC)(c3cc4c(cc3OC)N(C=O)C3C(O)(C(=O)NC)C(OC(C)=O)C5(CC)C=CCN6CCC43C65)C2)C1 (stereo unspecified)
dose: 1.0 mg/kg/injection, schedule: Q01DX001 (ip), vehicle: water
  T/C: 150 % of control
dose: 2.0 mg/kg/injection, schedule: Q01DX001 (ip), vehicle: water
  T/C: 153 % of control
dose: 4.0 mg/kg/injection, schedule: Q01DX001 (ip), vehicle: water
  T/C: 160 % of control

## Nc1ccc2ncccc2c1[N+](=O)[O-]
dose: 100.0 mg/kg/injection, schedule: Q04DX003 (ip), vehicle: saline with Tween-80
  T/C: 95 % of control
dose: 200.0 mg/kg/injection, schedule: Q04DX003 (ip), vehicle: saline with Tween-80
  T/C: 94 % of control
